Several values for one entry are separate records, joined by “and”; a condition that tells them apart may be missing. Equal values may be shown once.
How the values were obtained:
[1] = system: antiestrogen-binding sites (AEBS); assay: Competitive displacement of [3H]tamoxifen from AEBS in EL4 whole cells; details: 5 nM [3H]tamoxifen, competitor 50 nM-1000 nM, tamoxifen = 100, mean ± SEM of two experiments
Experimental: ^a Determined by competitive ligand binding assays using EL4 whole
cells as the source of AEBS. Cells were incubated with 5 nM [^3
unlabelled competing ligand (50 nM-1000 nM). The binding reaction was
where RBA50 is the concentration required to reduce bound [^3
competiting ligand). The data are the mean ± SEM of two experiments.

[2] = system: human breast carcinoma; details: clinical trials; prior art; cited from earlier work
[3] = system: estrogen receptor (ER); details: prior art, cited from earlier work
[4] = target: T1, estrogen receptor (ER) (Homo sapiens, UniProt P03372); assay: Competitive displacement of [3H]estradiol from ER in MCF7 whole cells; assay type: binding; details: 5 nM [3H]estradiol, hundredfold excess of test compound, mean ± SEM of two experiments, read-out: Bound [3H]estradiol (% of control)
T1 construct: ER present in an established human breast carcinoma-derivedcell line, MCF7; endogenous in cells; host or cells: MCF7 whole cells
T1 sequence (P03372 1-595): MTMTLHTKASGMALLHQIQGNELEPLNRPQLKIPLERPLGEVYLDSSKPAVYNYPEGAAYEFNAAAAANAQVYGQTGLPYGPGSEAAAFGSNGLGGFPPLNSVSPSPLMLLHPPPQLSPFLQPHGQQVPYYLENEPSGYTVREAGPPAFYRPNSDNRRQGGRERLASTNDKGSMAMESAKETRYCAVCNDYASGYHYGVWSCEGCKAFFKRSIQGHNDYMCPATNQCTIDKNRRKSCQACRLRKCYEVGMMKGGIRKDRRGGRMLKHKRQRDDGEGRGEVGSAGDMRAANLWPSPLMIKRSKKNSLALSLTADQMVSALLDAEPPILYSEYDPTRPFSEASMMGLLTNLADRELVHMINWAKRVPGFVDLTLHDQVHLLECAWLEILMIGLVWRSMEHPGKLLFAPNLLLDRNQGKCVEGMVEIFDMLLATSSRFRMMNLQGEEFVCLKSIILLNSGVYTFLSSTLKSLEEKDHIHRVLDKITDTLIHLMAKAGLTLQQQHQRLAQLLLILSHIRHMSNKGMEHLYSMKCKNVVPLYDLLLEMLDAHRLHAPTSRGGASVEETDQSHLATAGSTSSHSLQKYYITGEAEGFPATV
Experimental: ^a Determined by competitive ligand binding assays using MCF7 whole
cells as the receptor source. Cells were incubated with 5 nM [^3
H]estradiol in the absence or presence of a hundredfold excess of DES or
each test compound. The binding reaction was performed and bound [^3
H]estradiol quantitated as described in the experimental section.
^b Bound [^3 H]estradiol in the absence of unlabelled competing
ligand was set at 100%. The data are the mean ± SEM of two experiments

[5] = system: EL4 cells; assay: [3H]Thymidine incorporation (antiproliferative activity) by EL4 cells; assay type: cell-based; details: Mus musculus, 48 hours, mean ± SEM of two experiments, read-out: IC50 EL4 (inhibition of [3H]thymidine incorporation)
Experimental: (§1) After 48 hours, each well was pulsed with [^3 H]thymidine (New England Nuclear)(74 KBq/well, 0.02 ml/well) for 60 minutes. Macromolecular incorporation of [^3 H]thymidine was quantitated by harvesting cells on a Brandel harvester fitted with scintillant-coated glass microfibre filters (Ready Filters, Beckman).
(§2) [^3 H]Thymidine incorporation by MCF7 and RTx6 cells was determined by the same technique with the following modifications: (i) cells were plated at 4,500 cells/well (0.18 ml/well); (ii) compounds and [^3 H]thymidine (37 KBq/well, 0.02 ml/well) were added 24 hours after plating; (iii) cells were trypsinized (0.05 ml of 0.05%/0.53 mM EDTA/well) prior to harvesting.

[6] = system: MCF7 cells; assay: [3H]Thymidine incorporation (antiproliferative activity) by MCF7 cells; assay type: cell-based; details: Homo sapiens, 48 hours, mean ± SEM of two experiments, read-out: IC50 MCF7 (inhibition of [3H]thymidine incorporation)
Experimental: as §1, §2

[7] = system: cholesterol biosynthesis by EL4 cells; assay: De novo cholesterol biosynthesis from [3H]acetate by EL4 cells; assay type: cell-based; details: for % total radioactivity incorporated as cholesterol, experiment I / % total radioactivity incorporated as cholesterol, experiment II: single determinations of triplicate; for % total radioactivity incorporated as cholesterol, Mean: two experiments in triplicate
Experimental: (§3) De novo synthesis of cholesterol by EL4 cells from [^3 H]acetic acid, sodium salt (Amersham) (103 GBq/mmol) was quantitated using [4-^14 C]cholesterol (Amersham) (2.04 GBq/mmol) as internal standard by the method of Ho et al., J.Exp.Med.(1977) 145:1531-1549). Each determination was performed in triplicate, each consisting of 0.8 ml of a cell suspension (2×10^7 EL4 cells/ml) incubated with [^3 H]acetate (0.25 mM) and the test compound (0.1 ml, 10^-6 M-10^-4 M) for 5 or 48 hours at 37° C.
^a EL4 cells (20 × 10^6 cells/ml in well) were incubated
with 0.25 mM [^3 H]acetate in the absence or presence of 2 (10^-6
^b EL4 cells (20 × 10^6 cells/ml in well) were incubated
with 0.25 mM [^3 H] acetate in the absence or presence of 2 (10^-
with 0.25 mM [^3 H]acetate in the absence or presence of 4 (10^-4

[8] = Cell viability of EL4 cells by trypan blue exclusion; assay type: cell-based; details: mouse, el4 cells, trypan blue exclusion
Experimental: (§4) Cell counts were performed manually using a Neubauer hemocytometer. Cell viability was assessed by trypan blue exclusion. The table below (Table HI) is a summary
as §3
(§5) ^e Cell viability was estimated by trypan blue exclusion.
(§6) ^d Cell viability was estimated by trypan blue exclusion.

[9] = system: EL4 cells; assay: as above; assay type: cell-based; details: compound 2, 5 hours
Experimental: as §4, §3, §5, §6

[10] = prior art; cited from earlier work
[11] = compound 2, concentration 10^-M [sic], 48 hours

## CC/C(=C(\c1ccccc1)c1ccc(OCCN(C)C)cc1)c1ccccc1 [1a (Tamoxifen), 1-[4-(2-dimethylaminoethoxy)phenyl]-1,2-diphenylbut1-(Z)-ene]
[1]
  RBA: 100
[2]
  adverse side effects (in words): low incidence of adverse side effects
  clinical efficacy as antiestrogen (in words): established its efficacy
[3]
  antagonist/agonist character (in words): partial antagonists/agonists

## COc1ccc2c(-c3ccc(OCCN(C)C)cc3)c(Cc3ccc(Cl)cc3)oc2c1 [Compound 1]
[1]
  RBA: 391 ± 195
[4]
  remaining activity at 0.5 µM: 98 ± 1%
[5]
  IC50: 0.95 ± 0.05 µM
[6]
  IC50: 5.025 ± 0.025 µM

## COc1ccc2c(-c3ccc(OCCN4CCCC4)cc3)c(Cc3ccc(Cl)cc3)oc2c1 [Compound 2, 2-(p-Chlorobenzyl)-3-[p-(2-pyrrolidinoethoxy)phenyl]-6-methoxybenzo[b]furan]
[1]
  RBA: 268 ± 92
[5]
  IC50: 0.475 ± 0.225 µM
[6]
  IC50: 2.3 ± 0.1 µM
[7]; as early as 5 hours after treatment
  inhibition of cholesterol biosynthesis (in words): significant inhibition of cholesterol biosynthesis
[7]; compound 2, 10^-6 M, 5 hours, p < 0.01, Student's t test
  % inhibition of cholesterol synthesis: 48%
[7]; compound 2, 10^-6 M, 5 hours
  % total radioactivity incorporated as cholesterol, experiment I: 0.13% and 0.10% and 0.12%
  % total radioactivity incorporated as cholesterol, experiment II: 0.11% and 0.12% and 0.14%
[7]; compound 2, 10^-6 M, 5 hours, control 0.23 ± 0.02
  % total radioactivity incorporated as cholesterol, Mean: 0.12 ± 0.01%
[7]; compound 2, concentration 10^-M [sic], 48 hours, p < 0.01, Student's t test
  % inhibition of cholesterol synthesis: 47%
[7]; [11]
  % total radioactivity incorporated as cholesterol, experiment I: 0.16% and 0.15% and 0.24%
  % total radioactivity incorporated as cholesterol, experiment II: 0.14% and 0.17%
[7]; compound 2, concentration 10^-M [sic], 48 hours, control 0.32 ± 0.02
  % total radioactivity incorporated as cholesterol, Mean: 0.17 ± 0.02%
[8]; compound 2, 10^-6 M, 5 hours, control 96
  viability at 5 h, 1 µM: 91%
[8]; compound 2, concentration 10^-M [sic], 48 hours, control 92
  viability at 48 h: 87%
[9]
  cell viability (in words): not associated with loss of cell viability

## COc1ccc2c(-c3ccc(OCCN4CCCCC4)cc3)c(Cc3ccc(Cl)cc3)oc2c1 [Compound 3, 2-(p-Chlorobenzyl)-3-[p-(2-piperidinoethoxy)phenyl]-6-methoxybenzo[b]furan]
[1]
  RBA: 605 ± 371
[4]
  remaining activity at 0.5 µM: 93.5 ± 0.5%
[5]
  IC50: 0.3 ± 0.15 µM
[6]
  IC50: 2.05 ± 0.05 µM

## COc1ccc2c(-c3ccc(OCCN4CCOCC4)cc3)c(Cc3ccc(Cl)cc3)oc2c1 [Compound 4]
[1]
  RBA: 1828 ± 446
[4]
  remaining activity at 0.5 µM: 104 ± 2.5%
[5]
  IC50: 0.335 ± 0.145 µM
[6]
  IC50: 6.5 ± 0.5 µM
[7]; compound 4, 10^-4 M, 5 hours, p < 0.05, Student's t test
  % inhibition of cholesterol synthesis: 56%
[7]; compound 4, 10^-4 M, 5 hours
  % total radioactivity incorporated as cholesterol, experiment I: 0.19% and 0.09% and 0.05%
  % total radioactivity incorporated as cholesterol, experiment II: 0.11% and 0.12%
[7]; compound 4, 10^-4 M, 5 hours, control 0.25 ± 0.02
  % total radioactivity incorporated as cholesterol, Mean: 0.11 ± 0.03%
[7]; compound 4 at higher concentration (Table V)
  incorporation of [3H]acetate into cholesterol (in words): decreased incorporation of [^3 H]acetate into cholesterol
[8]; compound 4, 10^-4 M, 5 hours, control 96
  viability at 5 h, 100 µM: 79%

## O=C(c1ccc(OCCN2CCCC2)cc1)c1c(-c2ccc(O)cc2)sc2cc(O)ccc12 [LY117018]
[3]
  antagonist/agonist character (in words): partial antagonists/agonists (like tamoxifen)
[10]
  duration of action in vivo (in words): shorter duration of action in vivo

## COc1ccc(C2=C(C(=O)c3ccc(OCCN4CCCC4)cc3)c3ccccc3CC2)cc1 [Trioxifene]
[2]
  clinical efficacy as antiestrogen (in words): an effective antiestrogen in clinical trials
[3]; compared with tamoxifen
  estrogenic activity (in words): possesses greater estrogenic activity than tamoxifen
